Reference: ChEMBL document CHEMBL1148054, “Chemical and bioactive constituents from Zanthoxylum simulans” (J Nat Prod, 1994)
Calls of active or inactive are those of the source.

Legend:
Assay type in all cases: functional
Details in all cases: Oryctolagus cuniculus
Platelet [1] = assay: Antiplatelet activity against rabbit platelet assessed as inhibition of arachidonic acid-induced platelet aggregation at 100 ug/ml
Platelet [2] = assay: Antiplatelet activity against rabbit platelet assessed as inhibition of collagen-induced platelet aggregation at 100 ug/ml
Platelet [3] = assay: Antiplatelet activity against rabbit platelet assessed as inhibition of platelet activating factor-induced platelet aggregation at 100 ug/ml

Measured: Activity

COc1ccc2c(c1OC)C(CC1(C)C=Cc3c(c4cccc(OC)c4n(C)c3=O)O1)N(C)c1c-2ccc2cc3c(cc12)OCO3 (stereo unspecified)
inactive: all assays above

Oc1cnc2c(ccc3cc4c(cc32)OCO4)c1
inactive: all assays above
